Measured values published in patent publication US20240269139A1, “COMPOUNDS FOR TARGETED PROTEIN DEGRADATION OF KINASES” (DANA-FARBER CANCER INSTITUTE, INC., priority 2020, published 2024).
Read-outs that look alike come from different tables or passages of the source.

What was measured:
Assay type in all cases: cell-based
[1] = molecular target: T1, protein kinases (human kinome) (Homo sapiens, UniProt P11387); details: TOP1 P11387
T1 sequence (P11387 1-765): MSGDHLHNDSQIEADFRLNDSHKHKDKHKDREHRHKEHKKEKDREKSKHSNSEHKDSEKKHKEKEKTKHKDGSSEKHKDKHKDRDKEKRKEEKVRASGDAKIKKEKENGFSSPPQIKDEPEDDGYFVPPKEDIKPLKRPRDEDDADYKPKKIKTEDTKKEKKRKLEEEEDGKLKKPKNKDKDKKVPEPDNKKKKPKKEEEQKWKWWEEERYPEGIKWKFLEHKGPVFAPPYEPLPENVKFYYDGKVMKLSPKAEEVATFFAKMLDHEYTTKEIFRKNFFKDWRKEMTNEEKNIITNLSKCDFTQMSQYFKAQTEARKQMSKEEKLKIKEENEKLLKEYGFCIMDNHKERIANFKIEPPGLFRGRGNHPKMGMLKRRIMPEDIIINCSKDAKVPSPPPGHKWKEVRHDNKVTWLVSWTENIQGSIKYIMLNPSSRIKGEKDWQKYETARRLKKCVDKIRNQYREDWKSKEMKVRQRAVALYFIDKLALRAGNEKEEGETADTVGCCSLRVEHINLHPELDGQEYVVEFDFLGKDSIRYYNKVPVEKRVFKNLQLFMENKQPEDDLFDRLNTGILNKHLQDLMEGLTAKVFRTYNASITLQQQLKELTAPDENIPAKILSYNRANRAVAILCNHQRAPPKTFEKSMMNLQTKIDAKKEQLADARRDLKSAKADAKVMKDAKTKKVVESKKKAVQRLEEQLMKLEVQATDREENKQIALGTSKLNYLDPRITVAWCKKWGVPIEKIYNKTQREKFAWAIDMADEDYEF

[2] = molecular target: T2, protein kinases (human kinome) (Homo sapiens, UniProt Q6PHR2); details: for logFC ULK3: ULK3 (Q6PHR2-1)
T2 sequence (Q6PHR2 1-472): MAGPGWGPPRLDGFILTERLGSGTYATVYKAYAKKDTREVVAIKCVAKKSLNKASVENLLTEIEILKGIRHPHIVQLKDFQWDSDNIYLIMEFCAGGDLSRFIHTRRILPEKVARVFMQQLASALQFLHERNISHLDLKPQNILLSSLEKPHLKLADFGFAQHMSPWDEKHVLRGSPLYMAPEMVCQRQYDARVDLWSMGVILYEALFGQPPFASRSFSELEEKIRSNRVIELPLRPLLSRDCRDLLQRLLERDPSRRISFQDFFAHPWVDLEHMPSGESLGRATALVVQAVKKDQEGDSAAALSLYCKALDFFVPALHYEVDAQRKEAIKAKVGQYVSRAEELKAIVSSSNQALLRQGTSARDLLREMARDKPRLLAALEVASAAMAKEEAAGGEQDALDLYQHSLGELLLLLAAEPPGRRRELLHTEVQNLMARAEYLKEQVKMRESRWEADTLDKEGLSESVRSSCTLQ

[3] = molecular target: protein kinases (human kinome) (Homo sapiens, UniProt P54646); details: experiment wp146; for logFC: PRKAA2 (P54646)
[4] = molecular target: protein kinases (human kinome) (Homo sapiens, UniProt P06239)
[5] = molecular target: protein kinases (human kinome) (Homo sapiens, UniProt O96013); details: PAK4 O96013-1
[6] = molecular target: T3, protein kinases (human kinome) (Homo sapiens, UniProt Q9H8X2); details: IPPK (Q9H8X2); experiment wp114
T3 sequence (Q9H8X2 1-491): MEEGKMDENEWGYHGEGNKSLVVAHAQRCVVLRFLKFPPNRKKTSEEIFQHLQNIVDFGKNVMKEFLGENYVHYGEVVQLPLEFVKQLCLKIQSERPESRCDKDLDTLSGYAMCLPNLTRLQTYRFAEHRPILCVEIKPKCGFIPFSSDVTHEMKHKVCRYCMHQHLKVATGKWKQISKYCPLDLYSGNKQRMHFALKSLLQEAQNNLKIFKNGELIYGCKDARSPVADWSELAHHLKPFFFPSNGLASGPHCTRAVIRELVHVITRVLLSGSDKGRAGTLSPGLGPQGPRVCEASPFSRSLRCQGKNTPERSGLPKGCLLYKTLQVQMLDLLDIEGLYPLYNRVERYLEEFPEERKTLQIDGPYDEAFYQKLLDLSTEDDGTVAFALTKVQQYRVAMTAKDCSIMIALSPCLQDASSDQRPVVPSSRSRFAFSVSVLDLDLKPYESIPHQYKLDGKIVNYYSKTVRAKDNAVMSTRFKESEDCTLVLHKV

[7] = LCK, accession P06239-1, experiment wp081, direction of change down

protein kinases (human kinome) (Homo sapiens, UniProt P06239), sequence (P06239 whole entry): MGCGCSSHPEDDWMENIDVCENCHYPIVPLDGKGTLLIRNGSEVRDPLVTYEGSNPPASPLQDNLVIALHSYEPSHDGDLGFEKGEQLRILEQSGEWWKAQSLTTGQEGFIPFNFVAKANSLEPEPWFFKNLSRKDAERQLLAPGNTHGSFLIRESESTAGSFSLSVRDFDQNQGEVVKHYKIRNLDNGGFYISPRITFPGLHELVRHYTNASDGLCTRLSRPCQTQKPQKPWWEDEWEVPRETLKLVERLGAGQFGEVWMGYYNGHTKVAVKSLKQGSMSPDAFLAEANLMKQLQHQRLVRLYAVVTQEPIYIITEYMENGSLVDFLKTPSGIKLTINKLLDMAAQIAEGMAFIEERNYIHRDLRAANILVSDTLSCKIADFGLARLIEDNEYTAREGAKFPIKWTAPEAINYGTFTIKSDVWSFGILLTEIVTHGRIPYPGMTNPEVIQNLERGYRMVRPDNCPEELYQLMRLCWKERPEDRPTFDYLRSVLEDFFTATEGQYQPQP
protein kinases (human kinome) (Homo sapiens, UniProt O96013), sequence (O96013 whole entry): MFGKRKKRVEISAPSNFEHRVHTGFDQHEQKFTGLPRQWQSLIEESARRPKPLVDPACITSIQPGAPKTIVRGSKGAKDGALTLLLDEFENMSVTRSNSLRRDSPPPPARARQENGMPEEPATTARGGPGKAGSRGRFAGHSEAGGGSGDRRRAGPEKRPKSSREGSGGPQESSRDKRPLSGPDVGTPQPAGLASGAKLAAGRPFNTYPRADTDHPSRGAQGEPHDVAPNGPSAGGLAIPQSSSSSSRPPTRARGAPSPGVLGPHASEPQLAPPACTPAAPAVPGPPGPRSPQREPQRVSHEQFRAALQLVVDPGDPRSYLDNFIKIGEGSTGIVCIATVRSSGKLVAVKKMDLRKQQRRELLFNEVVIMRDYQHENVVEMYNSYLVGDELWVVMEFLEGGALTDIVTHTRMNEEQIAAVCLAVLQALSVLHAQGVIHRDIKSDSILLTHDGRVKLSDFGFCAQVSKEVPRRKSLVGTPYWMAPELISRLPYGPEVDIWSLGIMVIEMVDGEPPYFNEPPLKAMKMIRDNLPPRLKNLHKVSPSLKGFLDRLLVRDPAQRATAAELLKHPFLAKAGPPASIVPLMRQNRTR
protein kinases (human kinome) (Homo sapiens, UniProt P54646), sequence (P54646 whole entry): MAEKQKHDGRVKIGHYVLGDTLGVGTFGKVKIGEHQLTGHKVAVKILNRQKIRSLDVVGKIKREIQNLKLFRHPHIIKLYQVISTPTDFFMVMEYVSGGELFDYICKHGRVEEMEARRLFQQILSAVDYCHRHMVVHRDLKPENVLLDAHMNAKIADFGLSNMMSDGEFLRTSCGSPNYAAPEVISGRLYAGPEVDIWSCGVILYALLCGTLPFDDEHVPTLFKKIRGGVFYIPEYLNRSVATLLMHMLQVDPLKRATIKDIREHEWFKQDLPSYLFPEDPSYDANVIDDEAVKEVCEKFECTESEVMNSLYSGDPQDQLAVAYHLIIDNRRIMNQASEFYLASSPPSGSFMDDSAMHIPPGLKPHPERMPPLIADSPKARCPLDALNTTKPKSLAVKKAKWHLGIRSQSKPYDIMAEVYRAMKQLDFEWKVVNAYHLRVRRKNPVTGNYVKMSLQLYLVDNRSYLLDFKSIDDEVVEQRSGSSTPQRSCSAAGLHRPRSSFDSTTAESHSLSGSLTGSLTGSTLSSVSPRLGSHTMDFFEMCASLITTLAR

CC(=O)c1c(C)c2cnc(Nc3ccc(N4CCN(CCOCCOCCOCCNC(=O)COc5cccc6c5C(=O)N(C5CCC(=O)NC5=O)C6=O)CC4)cn3)nc2n(C2CCCC2)c1=O (centres unmarked) [BSJ.03.123]
logFC ([1]; experiment wp084): −0.3381

CS(=O)(=O)Nc1cccc(-c2csc3cnc(Nc4ccc(N5CCN(CCCCCOc6cccc7c6C(=O)N(C6CCC(=O)NC6=O)C7=O)CC5)cc4)nc23)c1 (centres unmarked) [DB0614, N-(3-(2-((4-(4-(5-((2-(2,6-Dioxopiperidin-3-yl)-1,3-dioxoisoindolin-4-yl)oxy)pentyl)piperazin-1-yl)phenyl)amino)thieno[3,2-d]pyrimidin-7-yl)phenyl)methanesulfonamide]
logFC ULK3 ([2]; experiment wp045): −0.9461
logFC ULK3 ([2]; experiment wp117): −0.8307
logFC ULK3 (Q6PHR2-1) ([2]; experiment wp045): −0.9461
logFC ULK3 (Q6PHR2-1) ([2]; experiment wp117): −0.8307

Cc1cc(Nc2ncc(Br)c(Nc3cccc(F)c3C(N)=O)n2)ccc1S(=O)(=O)NCCOCCOCCOCCOCCNc1cccc2c1C(=O)N(C1CCC(=O)NC1=O)C2=O (centres unmarked) [TMX.02.174]
logFC [3]: −1.826
logFC of PRKAA2 (P54646) [3]: −1.826

Cc1ccc(NC(=O)c2cccc(C(F)(F)F)c2)cc1N1Cc2cnc(Nc3ccc(N4CCN(Cc5cn(CCCCCOc6cccc7c6C(=O)N(C6CCC(=O)NC6=O)C7=O)nn5)CC4)nc3)nc2N(C)C1=O (centres unmarked) [DB0646, N-(3-(7-((6-(4-((1-(5-((2-(2,6-Dioxopiperidin-3-yl)-1,3-dioxoisoindolin-4-yl)oxy)pentyl)-1H-1,2,3-triazol-4-yl)methyl)piperazin-1-v)pyridin-3-yl)amino)-1-methyl-2-oxo-1,4-dihydropyrimido[4,5-d]pyrimidin-3(2H)-yl)-4-methylphenyl)-3-(trifluoromethyl)benzamide]
logFC LCK ([4]; LCK P06239-1, experiment wp160, 4 hr): −0.4575
logFC LCK ([4]; LCK P06239-1, experiment wp160, 8 hr): −0.5386
logFC LCK ([4]; LCK, accession P06239-1, experiment wp160, 4 hr, direction of change down): −0.4575
logFC LCK ([4]; LCK, accession P06239-1, experiment wp160, 8 hr, direction of change down): −0.5386
logFC LCK ([4]; LCK, accession P06239, experiment wp152, direction of change down): −0.4468
logFC of LCK (P06239) ([4]; experiment wp152): −0.4468

CC(C)(C)c1nc(-c2cccc(NS(=O)(=O)c3c(F)cccc3F)c2F)c(-c2ccnc(NCCOCCNC(=O)CCOCCOCCNc3cccc4c3C(=O)N(C3CCC(=O)NC3=O)C4=O)n2)s1 (centres unmarked) [DD.03.106]
logFC ([1]; experiment wp147, 4 uM): −0.4525

CC(C)S(=O)(=O)c1ccccc1Nc1nc(Nc2ccc(N3CCN(CCOCCOCCC(=O)NCCNc4cccc5c4CN(C4CCC(=O)NC4=O)C5=O)CC3)cc2)ncc1Cl (centres unmarked) [TL13.97]
logFC ULK3 ([2]; experiment wp137): −0.3729
logFC ULK3 (Q6PHR2-1) ([2]; experiment wp137): −0.3729

NC(=O)c1c(F)cccc1Nc1nc(Nc2ccc(S(=O)(=O)NCCOCCOCCOCCOCCNc3cccc4c3C(=O)N(C3CCC(=O)NC3=O)C4=O)cc2)ncc1Br (centres unmarked) [TMX.02.138]
logFC [3]: −1.476
logFC of PRKAA2 (P54646) [3]: −1.476

Cc1ccc(C(=O)Nc2ccc(CN3CCN(CCOCCOCCNC(=O)CNc4cccc5c4C(=O)N(C4CCC(=O)NC4=O)C5=O)CC3)c(C(F)(F)F)c2)cc1C#Cc1cnc2cccnn12 (centres unmarked) [TL13.150]
logFC LCK ([4]; LCK P06239-1, experiment wp081): −0.7129
logFC LCK [4, 7]: −0.7129

Cc1ccc(NC(=O)c2cccc(C(F)(F)F)c2)cc1N1Cc2cnc(Nc3ccc(N4CCN(CCCOc5cccc6c5C(=O)N(C5CCC(=O)NC5=O)C6=O)CC4)nc3)nc2N(C)C1=O (centres unmarked) [DB0662]
logFC ([5]; experiment wp168): −1.34
logFC PAK4 ([5]; experiment wp168): −1.34
logFC LCK ([4]; LCK P06239-1, experiment wp168): −0.9078
logFC LCK ([4]; LCK, accession P06239-1, experiment wp168, direction of change down): −0.9078

Cn1c(=O)c(-c2c(Cl)cccc2Cl)cc2cnc(Nc3ccc(OCCNC(=O)CCCCCCNC(=O)COc4cccc5c4C(=O)N(C4CCC(=O)NC4=O)C5=O)cc3)nc21 (centres unmarked) [SB1.G.192.1]
logFC LCK ([4]; LCK P06239-1, experiment wp081): −1.748
logFC LCK [4, 7]: −1.748

Cc1ncsc1-c1ccc([C@H](C)NC(=O)[C@@H]2C[C@@H](O)CN2C(=O)[C@@H](NC(=O)CCOCCOCCN2CCN(c3ccc(Nc4ncc(Cl)c(Nc5ccccc5S(=O)(=O)C(C)C)n4)cc3)CC2)C(C)(C)C)cc1 [FMF.06.098.1]
logFC [6]: −0.5773

C=CCn1c(=O)c2cnc(Nc3ccc(N4CCN(CCCNc5cccc6c5C(=O)N(C5CCC(=O)NC5=O)C6=O)CC4)cc3)nc2n1-c1cccc(C(C)(C)O)n1 (centres unmarked) [ZNL.02.096]
logFC ([5]; experiment wp056): −0.634
logFC PAK4 ([5]; experiment wp056): −0.634
logFC ([5]; experiment wp081): −0.3989
logFC PAK4 ([5]; experiment wp081): −0.3989
logFC ([5]; experiment wp106, 2 hr): −0.4238
logFC PAK4 ([5]; experiment wp106, 2 hr): −0.4238
logFC ([5]; experiment wp106, 4 hr): −0.5768
logFC PAK4 ([5]; experiment wp106, 4 hr): −0.5768
logFC ([5]; experiment wp118): −0.5732
logFC PAK4 ([5]; experiment wp118): −0.5732
logFC ([1]; experiment wp056): −0.3756

CS(=O)(=O)Nc1cccc(-c2csc3cnc(Nc4ccc(N5CCN(CCOCCOCCOc6cccc7c6C(=O)N(C6CCC(=O)NC6=O)C7=O)CC5)cc4)nc23)c1 (centres unmarked) [RSS0628]
logFC ULK3 ([2]; experiment wp045): −1.086
logFC ULK3 (Q6PHR2-1) ([2]; experiment wp045): −1.086

Nc1ncc(-c2ccc(S(=O)(=O)N(CCCNC(=O)CCOCCOCCOCCOCCOCCNc3cccc4c3C(=O)N(C3CCC(=O)NC3=O)C4=O)C3CC3)cc2)cc1-c1ccc2c(c1)CCNC2=O (centres unmarked) [WH.10417.099]
logFC ([5]; experiment wp103): −0.3705
logFC PAK4 ([5]; experiment wp103): −0.3705
logFC ([5]; experiment wp105): −0.3478
logFC PAK4 ([5]; experiment wp105): −0.3478
logFC ([5]; experiment wp107): −0.4797
logFC PAK4 ([5]; experiment wp107): −0.4797

Cc1ncsc1-c1ccc([C@H](C)NC(=O)[C@@H]2C[C@@H](O)CN2C(=O)[C@@H](NC(=O)CCCCCN2CCN(c3ccc(Nc4ncc5scc(-c6cccc(NS(C)(=O)=O)c6)c5n4)cc3)CC2)C(C)(C)C)cc1 [RSS0680, (2S,4R)-1-((S)-3,3-Dimethyl-2-(6-(4-(4-((7-(3-(methylsulfonamido)phenyl)thieno[3,2-d]pyrimidin-2-yl)amino)phenyl)piperazin-1-yl)hexanamido)butanoyl)-4-hydroxy-N—((S)-1-(4-(4-methylthiazol-5yl)phenyl)ethyl)pyrrolidine-2-carboxamide]
logFC ([1]; experiment wp080): −0.4687

CC(C)(C)c1nc(-c2cccc(NS(=O)(=O)c3c(F)cccc3F)c2F)c(-c2ccnc(NCCOCCNC(=O)CCOCCOCCNc3cccc4c3CN(C3CCC(=O)NC3=O)C4=O)n2)s1 (centres unmarked) [DD.03.107]
logFC ([1]; experiment wp147, 1 uM): −0.3823
logFC ([1]; experiment wp147, 2 uM): −0.4234
logFC ([1]; experiment wp147, 4 uM): −0.4699
